Data from PMC6278857, “Anaerobic Degradation of the Plant Sugar Sulfoquinovose Concomitant With H2S Production: Escherichia coli K-12 and Desulfovibrio sp. Strain DF1 as Co-culture Model” (Frontiers in Microbiology, 2018).

System: T1, DhpA (DHPS dehydrogenase)
T1 construct: full-length gene, N-terminal His-tag (pET28a), from E. coli Rosetta 2 DE3
Assay: initial rate of NADH formation at […] nm
Format: biochemical, Desulfovibrio sp. DF1
Conditions: 10 mM NAD+, 50 mM Tris-HCl, pH 9.5; racemic substrate; read-out: Kmapp

- Km: 36 ± 4 µM
Structure (SMILES): O=S(=O)(O)CC(O)CO (racemic) [DHPS]
